Where “and” joins values, the source holds several entries; their conditions need not be identical. Equal entries are not always repeated.
Tests used:
[1] = test system: Nup62; experiment: Expression level of marker gene Nup62 in liver of mice exposed for 7 days (microarray); conditions: mouse liver, 7 days exposure; for Average Fold Changes of the expression level of marker gene Nup62: average of 3 - 4 independent repeat experiments, negative value = underexpression (negative inverse of Ratio), dose and route per compound in Table 8; for Fold Change of expression of Nup62 in individual animals: one animal per table line (suffix of Exposure label = animal number), negative value = underexpression
[2] = test system: 9030619P08Rik; experiment: Expression level of marker gene 9030619P08Rik in liver of mice exposed for 7 days (microarray); conditions: mouse liver, 7 days exposure; for Average Fold Changes of the expression level of marker gene 9030619P08Rik: average of 3 - 4 independent repeat experiments, negative value = underexpression (negative inverse of Ratio), dose and route per compound in Table 8; for Fold Change of expression of 9030619P08Rik in individual animals: one animal per table line (suffix of Exposure label = animal number), negative value = underexpression
[3] = test system: Zbtb16; experiment: Expression level of marker gene Zbtb16 in liver of mice exposed for 7 days (microarray); conditions: mouse liver, 7 days exposure; for Average Fold Changes of the expression level of marker gene Zbtb16: average of 3 - 4 independent repeat experiments, negative value = underexpression (negative inverse of Ratio), dose and route per compound in Table 8; for Fold Change of expression of Zbtb16 in individual animals: one animal per table line (suffix of Exposure label = animal number), negative value = underexpression
[4] = test system: LOC75771; experiment: Expression level of marker gene LOC75771 in liver of mice exposed for 7 days (microarray); conditions: mouse liver, 7 days exposure; for Average Fold Changes of the expression level of marker gene LOC75771: average of 3 - 4 independent repeat experiments, negative value = underexpression (negative inverse of Ratio), dose and route per compound in Table 8; for Fold Change of expression of LOC75771 in individual animals: one animal per table line (suffix of Exposure label = animal number), negative value = underexpression
[5] = test system: Cyp17a1; experiment: Expression level of marker gene Cyp17a1 in liver of mice exposed for 7 days (microarray); conditions: mouse liver, 7 days exposure; for Average Fold Changes of the expression level of marker gene Cyp17a1: average of 3 - 4 independent repeat experiments, negative value = underexpression (negative inverse of Ratio), dose and route per compound in Table 8; for Fold Change of expression of Cyp17a1 in individual animals: one animal per table line (suffix of Exposure label = animal number), negative value = underexpression
[6] = test system: Anks4b; experiment: Expression level of marker gene Anks4b in liver of mice exposed for 7 days (microarray); conditions: mouse liver, 7 days exposure; for Average Fold Changes of the expression level of marker gene Anks4b: average of 3 - 4 independent repeat experiments, negative value = underexpression (negative inverse of Ratio), dose and route per compound in Table 8; for Fold Change of expression of Anks4b in individual animals: one animal per table line (suffix of Exposure label = animal number), negative value = underexpression

Structure (SMILES) | Average Fold Changes of the expression level of marker gene Nup62 [1] | Fold Change of expression of Nup62 in individual animals [1] | Average Fold Changes of the expression level of marker gene 9030619P08Rik [2] | Fold Change of expression of 9030619P08Rik in individual animals [2] | Average Fold Changes of the expression level of marker gene Zbtb16 [3] | Fold Change of expression of Zbtb16 in individual animals [3] | Average Fold Changes of the expression level of marker gene LOC75771 [4] | Fold Change of expression of LOC75771 in individual animals [4] | Average Fold Changes of the expression level of marker gene Cyp17a1 [5] | Fold Change of expression of Cyp17a1 in individual animals [5] | Average Fold Changes of the expression level of marker gene Anks4b [6] | Fold Change of expression of Anks4b in individual animals [6]
CC/C(=C(/CC)c1ccc(O)cc1)c1ccc(O)cc1 [NGTXC_DES, Diethylstillbestrol] | -1,07 | -1,56356 and 1,18178 and -1,04186 and 1,041463 | 8,00 | 3,399244 and 17,02687 and 10,00524 and 7,062258 | -1,15 | -1,72326 and 1,430939 and 1,400903 and -2,03597 | -1,06 | -1,13239 and -1,07708 and 1,027336 and -1,04436 | 10,74 | 9,417864 and 18,44632 and 6,256012 and 12,22566 | -1,02 | 1,020605 and 1,193296 and -1,09903 and -1,20697
CCCCC(CC)COC(=O)c1ccccc1C(=O)OCC(CC)CCCC (stereo not shown) [NGTXC_DEHP, Di(2-ethylhexyl)phthalate] | 1,03 | 1,166832 and 1,023361 and -1,1264 and 1,077398 | 3,11 | 1,421539 and 3,741746 and 4,049144 and 4,353386 | -1,19 | -1,41583 and 1,601817 and -2,52071 and 1,114567 | 1,12 | 1,152676 and 1,339443 and 1,013056 and 1,023425 | 2,49 | 6,253363 and 1,806164 and 1,292719 and 2,626167 | -1,13 | -1,08 and -1,18919 and 1,270926 and -1,59617
CC(=O)Nc1ccc2c(c1)Cc1ccccc1-2 [GTXC_2-AAF, 2-Acetylaminofluorene] | -1,51 | -1,55724 and -1,69925 and -1,3329 and -1,46527 | 1,38 | 1,187438 and 1,340597 and 1,335409 and 1,684509 | -2,94 | -3,61818 and -2,77847 and -3,11926 and -2,3778 | 1,64 | 1,705921 and 2,011494 and 1,050507 and 1,984839 | -1,62 | 1,364397 and -2,15504 and -2,61584 and -1,66057 | 1,87 | 1,655817 and 2,059207 and 2,270806 and 1,587469
CCOc1ccc(NC(C)=O)cc1 [GTXC_Phe, Phenacetin] |  | -1,46978 and -1,41748 and -1,3917 and -1,33382 |  | 2,591988 and 1,278319 and 1,436254 and 4,17095 |  | -4,26686 and -1,26966 and -2,10594 and -2,30082 |  | 1,462697 and 1,408953 and 1,858825 and 1,503018 | 1,82 | 1,929473 and -1,08575 and 2,976794 and 2,054986 |  | 1,592469 and 1,221871 and 1,552723 and 1,512243
c1ccc2c(c1)cc1ccc3cccc4ccc2c1c34 [GTXC_BaP, Benzo(a)pyrene] | -1,40 | -1,46302 and -1,51176 and -1,24257 and -1,41015 | 3,08 | 3,463285 and 3,508919 and 1,242329 and 5,940256 | -2,08 | -2,2075 and -2,73557 and -2,65608 and -1,1713 | 1,94 | 2,511058 and 2,153342 and 1,654892 and 1,573528 | 1,59 | 1,069143 and -1,57076 and 2,426957 and 3,849942 | 1,58 | 2,091694 and 1,512848 and 1,249576 and 1,590135
CCC1(c2ccccc2)C(=O)NC(=O)NC1=O [NGTXC_PBB, Phenobarbital] | 1,00 | -1,18737 and -1,21348 and 1,070337 and 1,356669 | 15,09 | 10,68519 and 17,28227 and 19,31769 and 14,53071 | -1,59 | -2,34418 and -1,15391 and -1,99396 and -1,17093 | 1,17 | 1,084573 and 1,085274 and 1,34375 and 1,18945 | 2,24 | 1,987088 and 1,966993 and 2,933095 and 2,191937 | 1,47 | 1,857325 and 1,468237 and 1,631778 and 1,048775
CC(C)CCCCCCCOC(=O)c1ccccc1C(=O)OCCCCCCCC(C)C [NC_DIDP, Diisodecyl phthalate] | -1,03 | 1,082226 and -1,02869 and 1,206993 and -1,44589 | 1,19 | 1,367458 and -2,48269 and 1,316609 and 2,807593 | -1,37 | 1,045284 and -1,02838 and -1,15546 and -3,11558 | 1,26 | 1,468884 and 1,270453 and 1,155297 and 1,177232 | -1,22 | -1,67941 and 2,746697 and -2,01664 and -1,81914 | 1,17 | 1,254408 and -1,44863 and 1,229508 and 1,74936
CC(C)(c1ccc(O)cc1)c1ccc(O)cc1 [NC_BPA, Bisphenol A] | -1,04 | -1,01361 and -1,00973 and 1,14385 and -1,3266 | 1,29 | -1,23514 and 2,605592 and 1,167664 and 1,121763 | -1,23 | 1,114306 and -1,6599 and 1,05274 and -1,63459 | 1,14 | 1,027932 and 1,306211 and -1,1049 and 1,370273 | -2,45 | -4,75677 and -1,01075 and -3,4994 and -2,12839 | -1,02 | -1,16229 and 1,285365 and -1,14224 and -1,06695
N.N.[Cl][Pt][Cl] [GTXC_CPPD, Cisplatin] | -1,39 | -1,40437 and -1,37437 and -1,38035 | 1,70 | 1,882632 and 3,19679 and -1,23124 | -3,46 | -4,28606 and -2,61037 and -3,7119 | 1,98 | 2,205733 and 1,720149 and 2,049812 | -2,48 | -4,49668 and -2,09626 and -1,61055 | 1,62 | 1,894611 and 1,416897 and 1,570269

Source: patent EP2706123A1, “In vitro method for determining genotoxic and non-genotoxic carcinogenicity of a compound” (Rijksinstituut Voor Volksgezondheid En Milieu, priority 2012, dated 2014)
